Test results: article PMC12211128, “Safety, tolerability, pharmacokinetic and pharmacodynamic effects of the muscarinic M1 positive allosteric modulator VU0467319 for Alzheimer’s disease: a single ascending-dose study in healthy participants” (Alzheimer's Research & Therapy, 2025)
Marks after values point to notes of the source that are not given here.

System: healthy participants
Test: Incidental visual memory ERP paradigm
Assay type: in vivo, human
Conditions: for Mean amplitude over the parietal cortex, Incidental Memory task, Novel trials / Mean amplitude over the parietal cortex, Incidental Memory task, Repeat trials: mean (SD)
Experimental: Following the cognitive battery, an electrophysiology recording was set up. Visual and auditory ERPs were recorded using a 128-channel Geodesic sensor net (EGI, Inc., Eugene, OR; [37, 38]). The electrophysiological recording was sampled at 250 Hz with filters set at 0.1–100 Hz. During data collection, all electrodes were referenced to vertex (Cz). The recording session lasted approximately 30 min.
(§1) A passive incidental visual memory paradigm (120 trials, 8 min; [38]) was used to evaluate changes in basic memory processes. Participants were asked to view a slide show of novel color photographs depicting complex natural scenes (different sets of images were used at pre-dose vs. post-dose administration test sessions). A small subset (n = 10) of the stimuli was presented repeatedly (× 5 each) throughout the session; the rest (n = 50) were shown once. To encourage attention to the stimulus sequence, 20 attention probes (a yellow smiley face) were presented throughout the test session and required a button press response. The task duration was approximately 7 min.
ERP processing and Analysis: Single-trial ERPs were derived by extracting a 100-ms pre-stimulus baseline and a 900 ms post-stimulus interval. The trials were screened for ocular and motor artifacts using automated procedures with standard threshold settings (NetStation 4.4, EGI, Inc) and verified using manual review. Data for electrodes characterized by consistent artifacts were replaced using the spherical spline interpolation algorithm. If more than 15 electrodes within a trial were noisy, the entire trial was discarded. Remaining artifact-free trials were averaged separately for each condition (standard vs. oddball; novel vs. repeated images), re-referenced to an average reference, and baseline corrected. For individual participant’s data to be included in the analysis, each condition average had to have a minimum of 10 artifact-free trials.
Statistical analysis focused on a priori selected electrode clusters corresponding to frontal, central, and parietal midline locations (Fz, Cz, Pz in 10–20 notation), confirmed using spatial principal components analysis. Mean amplitudes were calculated within 250–400 ms (frontal P3a), 300–500 ms (parietal P300), and 500–800 ms (parietal P600) temporal windows. These a-priori selected windows were confirmed using temporal principal components analysis.
Analyses for the auditory and visual oddball ERPs focused on the parietal (P300) and frontal (P3a) responses to standard and target stimuli. Differences in the amplitude, latency, and scalp topography of the responses were examined. […] For the incidental memory paradigm, differences in the mean amplitude of the parietal P300/P600 responses to repeated vs. novel presentations. The amplitude of the parietal P300/P600 waveform measures stimulus recognition. A larger positive amplitude for repeated compared to novel images indicates spontaneous formation of a memory trace.
as §1, with “(Key & Dykens, 2014))” for “[38])”, “once. All stimuli were presented in random order for 1500 ms with a random interstimulus interval of 1300-1600 ms.” for “once.”, “minutes.” for “min.”

[1] = SAD study, 120mg, Pre-Drug, n = 5
[2] = VU319 120 mg, fasting, post-drug session
[3] = VU319 120 mg, fasting, pre-drug session
[4] = VU319 120 mg, fed, post-drug session
[5] = VU319 120 mg, fed, pre-drug session

Cn1cc2c(-c3cc(F)c(CN4Cc5ncccc5C4=O)c(F)c3)cccc2n1 [VU319]
Incidental memory, novel vs repeated images (120 mg, fasted condition, either session, both p > 0.2): did not show a difference
Incidental memory parietal P300/P600 amplitude, repeated vs novel, effect size d (120 mg, fed condition, p = 0.018): 0.91
Incidental memory parietal P300/P600 amplitude, repeated vs novel, effect size d (400 mg, p = 0.098): 0.83
Incidental memory parietal P300/P600 amplitude, repeated vs novel, effect size d (600 mg, p = 0.09): 0.86
Incidental memory P300/P600 amplitude, repeated vs novel, higher two doses compared to placebo, effect size d (400 and 600 mg): > 0.8
Mean amplitude over the parietal cortex, Incidental Memory task, Novel trials (SAD study, 60 mg, Post-Drug): 0.87 (1.92) µV
Mean amplitude over the parietal cortex, Incidental Memory task, Repeat trials (SAD study, 60 mg, Post-Drug): 1.25 (1.02) µV
Mean amplitude over the parietal cortex, Incidental Memory task, Novel trials (SAD study, 60 mg, Pre-Drug): 0.49 (2.16) µV
Mean amplitude over the parietal cortex, Incidental Memory task, Repeat trials (SAD study, 60 mg, Pre-Drug): 0.77 (1.85) µV
Mean amplitude over the parietal cortex, Incidental Memory task, Novel trials (SAD study, 120 mg, Post-Drug): 1.67 (2.01) µV
Mean amplitude over the parietal cortex, Incidental Memory task, Repeat trials (SAD study, 120 mg, Post-Drug): 2.16 (1.69) µV
Mean amplitude over the parietal cortex, Incidental Memory task, Novel trials [1]: 2.3 (1.78)^# µV
Mean amplitude over the parietal cortex, Incidental Memory task, Repeat trials [1]: 2.66 (2.5)^# µV
Mean amplitude over the parietal cortex, Incidental Memory task, Novel trials (SAD study, 240 mg, Post-Drug): 1.76 (1.4) µV
Mean amplitude over the parietal cortex, Incidental Memory task, Repeat trials (SAD study, 240 mg, Post-Drug): 2.19 (1.37) µV
Mean amplitude over the parietal cortex, Incidental Memory task, Novel trials (SAD study, 240 mg, Pre-Drug): 1.22 (1.44) µV
Mean amplitude over the parietal cortex, Incidental Memory task, Repeat trials (SAD study, 240 mg, Pre-Drug): 2.14 (1.27) µV
Mean amplitude over the parietal cortex, Incidental Memory task, Novel trials (SAD study, 400 mg, Post-Drug): 2.45 (1.79) µV
Mean amplitude over the parietal cortex, Incidental Memory task, Repeat trials (SAD study, 400 mg, Post-Drug): 3.14 (2.3) µV
Mean amplitude over the parietal cortex, Incidental Memory task, Novel trials (SAD study, 400 mg, Pre-Drug): 2.35 (1.07) µV
Mean amplitude over the parietal cortex, Incidental Memory task, Repeat trials (SAD study, 400 mg, Pre-Drug): 1.91 (1.19) µV
Mean amplitude over the parietal cortex, Incidental Memory task, Novel trials (SAD study, 600 mg, Post-Drug): 1.98 (0.97) µV
Mean amplitude over the parietal cortex, Incidental Memory task, Repeat trials (SAD study, 600 mg, Post-Drug): 3.17 (1.37) µV
Mean amplitude over the parietal cortex, Incidental Memory task, Novel trials (SAD study, 600 mg, Pre-Drug): 2.47 (1.3) µV
Mean amplitude over the parietal cortex, Incidental Memory task, Repeat trials (SAD study, 600 mg, Pre-Drug): 2.74 (1.63) µV
Mean amplitude over the parietal cortex, Incidental Memory task, Novel trials [2]: 1.0 (1.39) µV
Mean amplitude over the parietal cortex, Incidental Memory task, Repeat trials [2]: 1.48 (1.3) µV
Mean amplitude over the parietal cortex, Incidental Memory task, Novel trials [3]: 1.34 (1.09) µV
Mean amplitude over the parietal cortex, Incidental Memory task, Repeat trials [3]: 1.46 (1.45) µV
Mean amplitude over the parietal cortex, Incidental Memory task, Novel trials [4]: 1.04 (1.81) µV
Mean amplitude over the parietal cortex, Incidental Memory task, Repeat trials [4]: 2.43 (1.59) µV
Mean amplitude over the parietal cortex, Incidental Memory task, Novel trials [5]: 1.0 (0.95) µV
Mean amplitude over the parietal cortex, Incidental Memory task, Repeat trials [5]: 0.88 (2.27) µV
